According to patent US10966970B2, “Fused tricyclic compounds and uses thereof in medicine” (SUNSHINE LAKE PHARMA CO., LTD., priority 2017, dated 2021):
pIC50: −log10 of the molar value.

Columns and labels:
HBV DNA replication = assay: Inhibition of HBV virus replication (HBV DNA in supernatant, qPCR); assay type: cell-based; settings: Hepatitis B virus, 240 h; HepG2.2.15 cells, 10 days treatment, supernatant HBV DNA by qPCR
Protocol: (§1) The chromosomes of HepG2.2.15 cells (SELLS, PNAS, 1987 and SELLS, JV, 1988) integrate the complete HBV genome and stably express viral RNA and viral proteins. HepG2.2.15 cells are able to secrete mature HBV particles and HBsAg into the culture medium. Viral particle DNA and HBsAg secreted by HepG 2.2.15 cells can be quantified by qPCR and ELISA methods, and the effects of the compound on virus replication and HBsAg secretion are thus examined.
(§2) HepG 2.2.15 Cells (8,000 per well) were seeded into 96-well cell culture plates in duplicate and cultured for 3 days until the cells grew to fill in pores. Cells were treated with 4-fold serial diluted compound solution for 10 days, and the compound solution was exchanged once every other day, the final concentration of DMSO in all wells was 0.5% and DMSO was used as a drug-free control. On the eleventh day, the supernatant was collected for quantitative detection of HBV DNA.
qPCR method was used for detection of viral genomic DNA, HBV primers were as follows: HBV-For-202, […]; HBV-Rev-315, […].
Using the SY BR Premix Ex Taq II—Takara DRR081S kit, 1 ≈L of the cell culture supernatant was used as a template, a plasmid containing the HBV genome was used for plotting a standard curve, and virus copy number was calculated using the standard curve. Concentration-virus copy number was treated with Graphpad Prism 5 software and the IC50 of inhibition of virus replication by compounds was calculated by a four-parameter nonlinear regression model.

HBsAg secretion = assay: Inhibition of HBsAg secretion (ELISA); assay type: cell-based, HBV; settings: Hepatitis B virus, HepG2.2.15, 240 h, read-out: HbsAg IC50 (nM)
Protocol: as §1
as §2, with “HBsAg.” for “HBV DNA.”
The level of HBsAg secreted by the cells after treatment with the compound was detected by ELISA. The method used a hepatitis B surface antigen diagnostic kit (Shanghai K ehua Biotechnology Co., Ltd. 510910113). 25 ≈L of the supernatant to be examined (diluted to 75 ≈L in PBS) was added to each well of the ELISA plate, and a kit-positive control and a negative control were set. The ELISA plates were blocked with mounting paper and incubated at 37 eC for 60 minutes. The ELISA plate was took out, and the mounting paper was removed, then 50 ≈L of enzyme conjugate was added into each well. After shaking for 10 seconds, the ELISA plates were blocked with mounting paper and incubated at 37 eC for 30 minutes. The ELISA plate was took out, and the mounting paper was removed, and the ELISA plate was repeated washing five times: liquid in the wells was discard each time; the wells was filled with washing solution, then stood for 60 seconds and spined dry; and liquid residue on blotting paper was patted dry. After the washing was completed, to all wells was immediately added a mixture of freshly prepared developer A and developer B: 100 ≈L per well. After shaking for 10 seconds on oscillator, the ELISA plates were blocked with mounting paper and incubated at 37 eC for 30 minutes. To all wells were added 50 ≈L of stop solution. Data were read at a wavelength of 450 nm on an Envision plate reader. Concentration-HBsAg OD450 value was treated with Graphpad Prism 5 software and the IC50 of inhibition of HBsAg secretion by compounds was calculated by a four-parameter nonlinear regression model.

SMILES | pIC50 (HBV DNA replication) | IC50 (HBsAg secretion) [nM]
CC(C)C1Cc2cc(OCC3CCOCC3)c(-c3nccs3)cc2-c2cc(=O)c(C(=O)O)cn21 (centres unmarked) [Example 21, 6-isopropyl-2-oxo-9-((tetrahydro-2H-pyran-4-yl)methoxy)-10-(thiazol-2-yl)-6,7-dihydro-2H-pyrido[2,1-a]isoquinoline-3-carboxylic Acid] | 9.52 | 0.35
CCCCCOc1cc2c(cc1-c1nccs1)-c1cc(=O)c(C(=O)O)cn1C(C(C)C)C2 (centres unmarked) [Example 20, 6-isopropyl-2-oxo-9-(pentyloxy)-10-(thiazol-2-yl)-6,7-dihydro-2H-pyrido[2,1-a]isoquinoline-3-carboxylic Acid] | 8.06 | 8.12
COc1cc2c(cc1-c1ncc(C(C)C)s1)CC(C(C)C)n1cc(C(=O)O)c(=O)cc1-2 (centres unmarked) [Example 77, 6-isopropyl-9-(5-isopropylthiazol-2-yl)-10-methoxy-2-oxo-6,7-dihydro-2H-pyrido[2,1-a]isoquinoline-3-carboxylic Acid] | 8.55 | 2.87
COCCCOc1cc2c(cc1C(=O)OC)-c1cc(=O)c(C(=O)O)cn1C(C(C)C)C2 (centres unmarked) [Example 1, 6-isopropyl-10-(methoxycarbonyl)-9-(3-methoxypropoxy)-2-oxo-6,7-dihydro-2H-pyrido[2,1-a]isoquinoline-3-carboxylic Acid] | 8.20 | 2.25
C#CCOC(=O)c1cc2c(cc1OCCCOC)CC(C(C)C)n1cc(C(=O)O)c(=O)cc1-2 (centres unmarked) [Example 36, 6-isopropyl-9-(3-methoxypropoxy)-2-oxo-10-((prop-2-yn-1-yloxy)carbonyl)-6,7-dihydro-2H-pyrido[2,1-a]isoquinoline-3-carboxylic Acid] | 8.59 | 4.22
COC(=O)c1cc2c(cc1-c1ccc(Cl)s1)CC(C(C)C)n1cc(C(=O)O)c(=O)cc1-2 (centres unmarked) [Example 73, 9-(5-chlorothiophen-2-yl)-6-isopropyl-10-(methoxycarbonyl)-2-oxo-6,7-dihydro-2H-pyrido[2,1-a]isoquinoline-3-carboxylic Acid] | 8.41 | 12.7
COCCCOc1cc2c(cc1-c1cccs1)-c1cc(=O)c(C(=O)O)cn1C(C(C)C)C2 (centres unmarked) [Example 15, 6-isopropyl-9-(3-methoxypropoxy)-2-oxo-10-(thiophen-2-yl)-6,7-dihydro-2H-pyrido[2,1-a]isoquinoline-3-carboxylic Acid] | 9.41 | 0.77
CC(C)C1Cc2cc(N3CCCC3)c(-c3nccs3)cc2-c2cc(=O)c(C(=O)O)cn21 (centres unmarked) [Example 69, 6-isopropyl-2-oxo-9-(pyrrolidin-1-yl)-10-(thiazol-2-yl)-6,7-dihydro-2H-pyrido[2,1-a]isoquinoline-3-carboxylic Acid] | 7.99 | 15.2
COc1cc2c(cc1-c1ccc(Cl)s1)CC(C(C)C)n1cc(C(=O)O)c(=O)cc1-2 (centres unmarked) [Example 79, 9-(5-chlorothiophen-2-yl)-6-isopropyl-10-methoxy-2-oxo-6,7-dihydro-2H-pyrido[2,1-a]isoquinoline-3-carboxylic Acid] | 8.70 | 2.95
COc1cc2c(cc1-c1cccs1)CC(C(C)C)n1cc(C(=O)O)c(=O)cc1-2 (centres unmarked) [Example 17, 6-isopropyl-10-methoxy-2-oxo-9-(thiophen-2-yl)-6,7-dihydro-2H-pyrido[2,1-a]isoquinoline-3-carboxylic Acid] | 8.44 | 2.14
COCCCOc1cc2c(cc1-c1csc(C)n1)-c1cc(=O)c(C(=O)O)cn1C(C(C)C)C2 (centres unmarked) [Example 14, 6-isopropyl-9-(3-methoxypropoxy)-10-(2-methylthiazol-4-yl)-2-oxo-6,7-dihydro-2H-pyrido[2,1-a]isoquinoline-3-carboxylic Acid] | 8.47 | 7.2
COCCCOc1cc2c(cc1-c1nccs1)-c1cc(=O)c(C(=O)O)cn1C(C(C)C)C2 (centres unmarked) [Example 9, 6-isopropyl-9-(3-methoxypropoxy)-2-oxo-10-(thiazol-2-yl)-6,7-dihydro-2H-pyrido[2,1-a]isoquinoline-3-carboxylic Acid] | 9.74 | 0.25
CNC(=O)c1cc2c(cc1OCCCOC)CC(C(C)C)n1cc(C(=O)O)c(=O)cc1-2 (centres unmarked) [Example 5, 6-isopropyl-9-(3-methoxypropoxy)-10-(methylcarbamoyl)-2-oxo-6,7-dihydro-2H-pyrido[2,1-a]isoquinoline-3-carboxylic Acid] | 7.97 | 9.88
